Tests used:
KIFC1 = KIFC1 (Homo sapiens, UniProt Q9BW19); details: ATP-competitive and MT-noncompetitive; cited from earlier work
[1] = tested on: BT-549 breast cancer cells; details: BT-549 cells with amplified centrosomes; cited from earlier work
ZR-75-30 cells [2] = assay: Boyden chamber invasion assay, ZR-75-30 cells; format: cell-based; details: aphidicolin-treated cells
Experimental: Trajectories of 10 cells each were captured over 18 h with 108 images per movie (6 frames/h). Data were analyzed using Volocity3.0 software (Improvision, Coventry, UK), whereby average net displacement, displacement rate and velocity measurements were generated for the identified cell tracks with respect to cell centroids. Quantitation of net displacement (Panel A), displacement rate (Panel B) and track velocity (Panel C) for cells with 1 and >2 centrosomes are shown as bar graphs. […] Panel E depicts a bar graph showing quantitation of migration rate of treated and untreated ZR-75-30 cells in a wound healing assay. Panel F depicts a bar graph showing the number of migrated cells in a Boyden chamber assay performed with aphidicolin-treated (APD) and untreated (C) ZR-75-30 cells.
(§1) To assess the migratory capacity of aphidicolin treated cells (˜60% cells harboring extra centrosomes) as compared to control cells, a a classical wound healing assay was performed.

ZR-75-30 cells [3] = assay: Wound healing assay, ZR-75-30 cells; format: cell-based; details: aphidicolin-treated cells; control 40 h
Experimental: as §1

ZR-75-30 cells [4] = assay: Induction of extra centrosomes and markers in ZR-75-30 cells by aphidicolin; format: cell-based
Experimental: Next, centrosome amplification was evaluated to determine the extent to which it directly and independently impacts the migration potential of a mildly aggressive cell line, ZR-75-30. […] In particular, it was of interest to evaluate whether generation of extra centrosomes (by genetic and pharmacological means) impacts migration and invasion kinetics by experimentally inducing centrosome amplification in these cells by aphidicolin treatment (5 μg/ml for 24 h).
Upon treatment with aphidicolin, centrosome amplification was confirmed by immunofluorescence staining for γ-tubulin (green) (data not shown) and changes in γ-tubulin and centrin levels detectable by Western blot analysis.
Accordingly, these cells can be pharmacologically manipulated with aphidicolin to generate extra centrosomes. […] Following aphidicolin wash-out, cells were stained using anti-centrin-2 antibodies to verify extra centrosomes by immunofluorescence confocal microscopy. About ˜60% ZR-75-30 cells generated extra centrosomes (6-8 per cell) and were evaluated for their sensitivity to the three drugs, griseofulvin, bromonoscapine, and PJ34, and compared with parent ZR-75-30 cells with normal centrosomes.

[5] = tested on: MDA-MB-231 breast cancer cells; assay: Spindle multipolarity and cell death, MDA-MB-231 cells; format: cell-based, human; details: 18 h, 10 μM
Experimental: To investigate a possible role for centrosome declustering drugs (such as brominated noscapines) to induce high-grade spindle multipolarity leading to cell death during mitosis, MDA-MB-231 breast cancer cells were treated with brominated noscapine. “Scattering” of amplified centrosomes in MDA-MB-231 breast cancer cells upon treatment with brominated noscapine was observed (data not shown). […] Based upon this metaphasic occurrence of cell death, this caspase-mediated cellular demise reflects a “metaphase catastrophe”.

[6] = tested on: MCF-10A near normal breast epithelial cells; assay: Spindle multipolarity and cell death, MCF-10A cells; format: cell-based; details: same concentration (10 μM)

Chain of KIFC1 (Q9BW19 whole entry): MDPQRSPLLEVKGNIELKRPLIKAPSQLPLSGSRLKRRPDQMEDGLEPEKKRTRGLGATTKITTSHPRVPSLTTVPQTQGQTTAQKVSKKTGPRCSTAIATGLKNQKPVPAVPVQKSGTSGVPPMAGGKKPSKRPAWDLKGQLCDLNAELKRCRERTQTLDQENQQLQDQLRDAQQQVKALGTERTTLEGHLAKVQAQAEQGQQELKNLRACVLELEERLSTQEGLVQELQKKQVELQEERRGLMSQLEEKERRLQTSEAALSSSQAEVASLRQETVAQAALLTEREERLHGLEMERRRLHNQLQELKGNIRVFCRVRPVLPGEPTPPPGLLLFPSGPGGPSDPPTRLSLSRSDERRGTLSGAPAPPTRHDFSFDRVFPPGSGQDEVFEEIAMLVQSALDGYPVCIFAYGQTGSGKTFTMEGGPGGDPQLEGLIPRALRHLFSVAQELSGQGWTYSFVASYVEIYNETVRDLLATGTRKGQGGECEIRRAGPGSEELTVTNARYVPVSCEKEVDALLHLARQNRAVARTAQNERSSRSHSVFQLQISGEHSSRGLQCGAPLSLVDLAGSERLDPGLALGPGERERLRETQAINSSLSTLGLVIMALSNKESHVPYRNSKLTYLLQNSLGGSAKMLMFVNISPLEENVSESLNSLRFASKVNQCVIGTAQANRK
Chain of KIFC1 (P68363 whole entry partner): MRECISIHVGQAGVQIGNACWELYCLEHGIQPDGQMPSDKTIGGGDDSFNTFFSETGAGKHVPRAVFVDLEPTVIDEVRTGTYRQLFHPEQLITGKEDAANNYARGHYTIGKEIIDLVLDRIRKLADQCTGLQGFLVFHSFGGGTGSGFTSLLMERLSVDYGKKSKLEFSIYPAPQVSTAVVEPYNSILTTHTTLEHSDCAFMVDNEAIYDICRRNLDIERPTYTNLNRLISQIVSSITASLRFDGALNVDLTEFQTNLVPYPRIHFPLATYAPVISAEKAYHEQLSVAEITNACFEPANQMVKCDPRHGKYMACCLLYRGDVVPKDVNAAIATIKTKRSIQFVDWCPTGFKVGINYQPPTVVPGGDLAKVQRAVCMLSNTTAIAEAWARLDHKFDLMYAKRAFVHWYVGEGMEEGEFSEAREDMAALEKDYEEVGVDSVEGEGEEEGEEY
Chain of KIFC1 (Q9BVA1 whole entry partner): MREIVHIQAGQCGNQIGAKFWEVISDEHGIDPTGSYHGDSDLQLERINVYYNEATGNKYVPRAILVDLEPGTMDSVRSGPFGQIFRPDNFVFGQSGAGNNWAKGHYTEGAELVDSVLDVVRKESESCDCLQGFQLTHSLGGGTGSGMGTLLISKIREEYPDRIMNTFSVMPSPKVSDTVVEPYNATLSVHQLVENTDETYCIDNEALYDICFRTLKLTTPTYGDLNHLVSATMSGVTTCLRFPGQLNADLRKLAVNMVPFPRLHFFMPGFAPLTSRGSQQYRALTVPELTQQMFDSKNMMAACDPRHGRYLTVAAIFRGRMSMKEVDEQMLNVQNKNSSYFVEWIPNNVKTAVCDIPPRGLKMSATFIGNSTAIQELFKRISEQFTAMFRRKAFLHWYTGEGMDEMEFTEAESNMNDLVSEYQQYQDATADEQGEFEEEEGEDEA

CCCc1cc(C(=O)N[C@H](Cc2ccc(-c3cccc(OC(F)(F)F)c3)nc2)C(=O)N[C@@H]2CCNC2)sc1C [AZ82]
Ki (KIFC1): 43 nM | centrosome declustering [1]: causes centrosome declustering

C[C@@]1(CO)[C@H](O)CC[C@@]2(C)[C@H]1CC[C@H]1C[C@@H]3C[C@@]12CC[C@]3(O)CO [aphidicolin]
invasion capacity (ZR-75-30 cells [2]): increase in invasion capacity | time to fill the scratch wound (ZR-75-30 cells [3]): 18 h | cells harboring extra centrosomes (ZR-75-30 cells [4]; 5 μg/ml for 24 h): ~60% | extra centrosomes per cell (ZR-75-30 cells [4]; 24 h treatment, after wash-out): 6-8 per cell | vimentin levels (immunoblot) (ZR-75-30 cells [4]; following aphidicolin treatment): significant increase in vimentin levels

brominated noscapine
spindle phenotype and cell death [5]: highly aberrant multipolar spindles that succumb to cell death | spindle multipolarity and cell death [6]: did not exhibit any multipolarity or cell death

From patent publication US10242153B2, “Method for determining the risk profile of neoplastic tissue” (NOVAZOI THERANOSTICS, priority 2014, dated 2019)
